Experimental data from publication PMC10703858, “A simple and green capillary electrophoresis-mass spectrometry method for therapeutic drug monitoring of colistin in clinical plasma samples” (Heliyon, 2023).
Read-outs that look alike come from different tables or passages of the source. Positions of bridges follow the written chain, without caps; N, C: chain ends. Non-standard residues stand in square brackets, D forms with d. Residues, ends and D or L forms follow the SMILES beside them. *: point of attachment. Octanoyl(6-Me) = CCC(C)CCCCC(=O)*; Dab = NCC[CH](N)C(=O)O

Columns and labels:
[1] = plasma CST concentration in critically ill patient (CE-MS/MS, TDM); format: in vivo, human; settings: CST A + CST B = 100 %, reference standard was 37.2/62.8 %
Method: Clinical plasma samples from two critically ill patients were obtained from the Clinic of Hematology and Transfusiology of St Cyril and Methodius Hospital in Bratislava. After collection, the samples were stored at −80 °C. Before the analysis, the samples were thawed at laboratory temperature, vortexed, and then, 30 μL of the plasma sample was mixed with 30 μL of demineralized water and 120 μL of the IS working solution. […] Following this action, the supernatant was injected directly into the CE system from a CE vial.
The application potential of the validated CE-MS method was tested on the plasma samples obtained from the Clinic of Hematology and Transfusiology of St Cyril and Methodius Hospital in Bratislava. Samples were collected from two critically ill patients treated with multiple intravenous antibiotics and antifungals. The samples were collected before and 30 min after the intravenous (i.v.) administration of the drugs. Patient 1 was treated with meropenem, trimethoprim/sulphamethoxazol, and CST. […] The measured plasma CST concentration of patient 1 before drug administration was 0.82 ± 0.02 μg mL^−1 ([…], n = 3). […]
As previously stated, CST is a heterogeneous substance and, as such, differs not only between producers but also across batches produced by the same manufacturer. […] In clinical plasma samples, a reverse percentage representation of the CST forms was detected. […]

[2] = short-term (autosampler) stability in plasma QC samples; settings: n = 5
Method: (§1) Quality control (QC) samples were prepared at three concentration levels: i.) low QC: 0.28 μg mL^−1 (CST A sulfate) and 0.47 μg mL^−1 (CST B sulfate); ii.) medium QC: 2.79 μg mL^−1 (CST A sulfate) and 4.71 μg mL^−1 (CST B sulfate); and iii.) high QC: 6.51 μg mL^−1 (CST A sulfate) and 10.99 μg mL^−1 (CST B sulfate). The calibration curve and the QC sample solutions were prepared by mixing 30 μL of the CST sulfate standard at the desired concentration level with 30 μL of demineralized water or plasma and 120 μL of the IS working solution. After being vortexed and left to rest at room temperature for 10 min, the samples were centrifuged at 30,000×g for 10 min. Following this action, supernatant was immediately injected from a CE vial. Every sample underwent three measurements.
(§2) During the validation process, two types of stability were assessed: freeze and thaw stability (three cycles of freezing and thawing at room temperature) and short-term stability (sample kept in an autosampler for 24 h at laboratory temperature). In order to compare the findings from the measurements of QC samples stored according to the guidelines with those of newly prepared QC samples, stability experiments were conducted.

[3] = system: plasma proteins (especially acidic alpha glycoprotein); settings: cited from earlier work
[4] = freeze and thaw stability in plasma QC samples; settings: n = 5
Method: as §1, §2

[5] = pediatric patients; sum of CST A and CST B; cited from earlier work
[6] = design: method as in PMID 30500757; settings: used topically and orally; cited from earlier work

CCC(C)CCCCC(=O)NC(CCN)C(=O)NC(C(=O)NC(CCN)C(=O)NC1CCNC(=O)C(C(C)O)NC(=O)C(CCN)NC(=O)C(CCN)NC(=O)C(CC(C)C)NC(=O)C(CC(C)C)NC(=O)C(CCN)NC1=O)C(C)O (stereo not drawn) [CST A, colistin A] ({Octanoyl(6-Me)}-[Dab]T[Dab][Dab][Dab]LL[Dab][Dab]T; lactam 4-C; configuration not given here)
percentage representation of the CST forms in clinical plasma samples [1]: 76.4%
Autosampler stability, Found, QC high ([2]; plasma QC high, nominal 6.51 (CST A) / 10.99 (CST B) μg.mL^−1, autosampler 24 h at laboratory temperature, CE-MS/MS): 6.76 µg/mL
Autosampler stability, Found, QC low ([2]; plasma QC low, nominal 0.28 (CST A) / 0.47 (CST B) μg.mL^−1, kept in autosampler 24 h at laboratory temperature, pooled human plasma, CE-MS/MS): 0.29 µg/mL
Autosampler stability, Found, QC medium ([2]; plasma QC medium, nominal 2.79 (CST A) / 4.71 (CST B) μg.mL^−1, autosampler 24 h at laboratory temperature, CE-MS/MS): 2.94 µg/mL
Autosampler stability, RE, QC high ([2]; relative error in comparison to fresh sample, plasma QC high, autosampler 24 h at laboratory temperature): 2.3%
Autosampler stability, RE, QC medium ([2]; relative error in comparison to fresh sample, plasma QC medium, autosampler 24 h at laboratory temperature): 3.3%
binding to plasma proteins ([3]; especially to acidic alpha glycoprotein): 56.6%
Freeze-to-thaw stability, Found, QC high ([4]; plasma QC high, nominal 6.51 (CST A) / 10.99 (CST B) μg.mL^−1, three freeze-thaw cycles, CE-MS/MS): 6.54 µg/mL
Freeze-to-thaw stability, Found, QC low ([4]; plasma QC low, nominal 0.28 (CST A) / 0.47 (CST B) μg.mL^−1, three cycles of freezing and thawing at room temperature, CE-MS/MS): 0.29 µg/mL
Freeze-to-thaw stability, Found, QC medium ([4]; plasma QC medium, nominal 2.79 (CST A) / 4.71 (CST B) μg.mL^−1, three freeze-thaw cycles, CE-MS/MS): 2.81 µg/mL
Freeze-to-thaw stability, RE, QC low ([4]; relative error in comparison to fresh sample, plasma QC low, three freeze-thaw cycles): 2.7%
Freeze-to-thaw stability, RE, QC medium ([4]; relative error in comparison to fresh sample, plasma QC medium, three freeze-thaw cycles): 1.7%

Colistin [CST]
mean steady-state concentration of CST in plasma, median [5]: 2.92 µg/mL

colistin sulfate
absorption from the gastrointestinal tract [6]: minimal

CC(C)CCCCC(=O)N[C@@H](CCN)C(=O)N[C@H](C(=O)N[C@@H](CCN)C(=O)N[C@H]1CCNC(=O)[C@H]([C@@H](C)O)NC(=O)[C@H](CCN)NC(=O)[C@H](CCN)NC(=O)[C@H](CC(C)C)NC(=O)[C@@H](CC(C)C)NC(=O)[C@H](CCN)NC1=O)[C@@H](C)O [CST B, colistin B] (HELM PEPTIDE1{[CC(C)CCCCC(=O)[*:2]].[Dab].T.[Dab].[Dab].[Dab].[dL].L.[Dab].[Dab].T}$PEPTIDE1,PEPTIDE1,5:R3-11:R2$$$V2.0)
binding to plasma proteins [3]: 41.7%
